Assays:
Type in all cases: functional
[1] = tested on: COLO 205; test: Growth inhibition of human COLO205 cells after 48 hrs by SRB protein assay; details: COLO 205, 48 h
[2] = tested on: EKVX; test: Growth inhibition of human EKVX cells after 48 hrs by SRB protein assay
[3] = tested on: RXF 393; test: Growth inhibition of human RXF393 cells after 48 hrs by SRB protein assay; details: RXF 393, 48 h
[4] = tested on: BT-549; test: Growth inhibition of human BT549 cells after 48 hrs by SRB protein assay; details: BT-549, 48 h
[5] = tested on: SNB-75; test: Growth inhibition of human SNB75 cells after 48 hrs by SRB protein assay; details: SNB-75, 48 h
[6] = tested on: NCI-H460; test: Anticancer activity against human NCL-H460 cells assessed as growth at 100 uM after 48 hrs by SRB protein assay relative to control; details: NCI-H460, 48 h, read-out: Activity
[7] = tested on: U-251; test: Growth inhibition of human U251 cells after 48 hrs by SRB protein assay; details: U-251, 48 h
[8] = tested on: SK-MEL-28; test: Growth inhibition of human SK-MEL-28 cells after 48 hrs by SRB protein assay; details: SK-MEL-28, 48 h
[9] = Growth inhibition of human NCL-H322M cells after 48 hrs by SRB protein assay
[10] = tested on: TK-10; test: Growth inhibition of human TK10 cells after 48 hrs by SRB protein assay; details: TK-10, 48 h
[11] = Growth inhibition of human LOX MIVI cells after 48 hrs by SRB protein assay
[12] = Growth inhibition of human NCL-H522 cells after 48 hrs by SRB protein assay; details: NCL-H522, 48 h
[13] = tested on: NCI/ADR-RES; test: Growth inhibition of human NCI/ADR-RES cells after 48 hrs by SRB protein assay
[14] = tested on: A549; test: Growth inhibition of human A549 cells after 48 hrs by SRB protein assay; details: A549, 48 h
[15] = tested on: HCT-116; test: Growth inhibition of human HCT116 cells after 48 hrs by SRB protein assay; details: HCT-116, 48 h
[16] = tested on: 786-0; test: Growth inhibition of human 786-0 cells after 48 hrs by SRB protein assay; details: 786-0, 48 h
[17] = tested on: ACHN; test: Growth inhibition of human ACHN cells after 48 hrs by SRB protein assay
[18] = tested on: MOLT-4; test: Growth inhibition of human MOLT4 cells after 48 hrs by SRB protein assay; details: MOLT-4, 48 h
[19] = tested on: DU-145; test: Growth inhibition of human DU145 cells after 48 hrs by SRB protein assay; details: DU-145, 48 h
[20] = tested on: SF-268; test: Anticancer activity against human SF268 cells assessed as growth at 100 uM after 48 hrs by SRB protein assay relative to control; details: SF-268, 48 h, read-out: Activity
[21] = tested on: OVCAR-3; test: Growth inhibition of human OVCAR-3 cells after 48 hrs by SRB protein assay; details: OVCAR-3, 48 h
[22] = tested on: KM12; test: Growth inhibition of human KM12 cells after 48 hrs by SRB protein assay; details: KM12, 48 h
[23] = tested on: MDA-MB-435; test: Growth inhibition of human MDA-MB-435 cells after 48 hrs by SRB protein assay; details: MDA-MB-435, 48 h
[24] = tested on: UACC-62; test: Growth inhibition of human UACC62 cells after 48 hrs by SRB protein assay; details: UACC-62, 48 h
[25] = tested on: NCI-H460; test: Growth inhibition of human NCL-H460 cells after 48 hrs by SRB protein assay; details: NCI-H460, 48 h
[26] = tested on: UACC-257; test: Growth inhibition of human UACC257 cells after 48 hrs by SRB protein assay; details: UACC-257, 48 h
[27] = tested on: HCC 2998; test: Growth inhibition of human HCC2998 cells after 48 hrs by SRB protein assay; details: HCC 2998, 48 h
[28] = tested on: HOP-92; test: Growth inhibition of human HOP92 cells after 48 hrs by SRB protein assay; details: HOP-92, 48 h
[29] = tested on: A498; test: Growth inhibition of human A498 cells after 48 hrs by SRB protein assay; details: A498, 48 h
[30] = tested on: HOP-62; test: Growth inhibition of human HOP62 cells after 48 hrs by SRB protein assay; details: HOP-62, 48 h
[31] = tested on: PC-3; test: Growth inhibition of human PC3 cells after 48 hrs by SRB protein assay; details: PC-3, 48 h
[32] = tested on: MCF7; test: Growth inhibition of human MCF7 cells after 48 hrs by SRB protein assay; details: MCF7, 48 h
[33] = tested on: CCRF-CEM; test: Growth inhibition of human CCRF-CEM cells after 48 hrs by SRB protein assay
[34] = tested on: MCF7; test: Anticancer activity against human MCF7 cells assessed as growth at 100 uM after 48 hrs by SRB protein assay relative to control; details: MCF7, 48 h, read-out: Activity
[35] = read-out: LC50 (the source's name)

Clc1nc(Cl)c2ncn(Cc3ccccc3Cn3cnc4c(Cl)nc(Cl)nc43)c2n1
GI50 [1]: 3.16 µM | LC50 [1]: > 100 µM | TGI [1]: > 100 µM | GI50 [2]: 1.02 µM | LC50 [2]: 6.76 µM | TGI [2]: 2.63 µM | TGI [3]: 3.47 µM | CC50 [3, 35]: 7.08 µM | GI50 [4]: 0.17 µM | TGI [4]: 1.51 µM | CC50 [4, 35]: 5.01 µM | GI50 [5]: 5.13 µM | TGI [5]: 21.9 µM | CC50 [5, 35]: 81.3 µM | growth at 100 µM [6]: 0% | GI50 [7]: 1.78 µM | TGI [7]: 3.55 µM | CC50 [7, 35]: 69.2 µM | GI50 [8]: 3.98 µM | LC50 [8]: > 100 µM | TGI [8]: 24.6 µM | GI50 [9]: 14.5 µM | TGI [9]: 27.5 µM | CC50 [9, 35]: 52.5 µM | GI50 [10]: 2.69 µM | LC50 (50% lethal concentration) [10]: 28.8 µM | TGI [10]: 7.94 µM | GI50 [11]: 1.15 µM | LC50 [11]: 6.61 µM | TGI [11]: 2.75 µM | GI50 [12]: 3.39 µM | LC50 [12]: > 100 µM | TGI [12]: 9.12 µM | GI50 [13]: 20.4 µM | LC50 [13]: 91.2 µM | TGI [13]: 43.6 µM | GI50 [14]: 4.79 µM | LC50 [14]: > 100 µM | TGI [14]: 20.4 µM | GI50 [15]: 3.31 µM | TGI [15]: 13.8 µM | CC50 [15, 35]: > 100 µM | GI50 [16]: 10 µM | TGI [16]: 25.1 µM | CC50 [16, 35]: 63.1 µM | GI50 [17]: 1.77 µM | LC50 [17]: 5.75 µM | TGI [17]: 3.24 µM | GI50 [18]: 1.66 µM | LC50 [18]: 8.13 µM | TGI [18]: 3.63 µM | GI50 [19]: 1 µM | TGI [19]: 2.51 µM | CC50 [19, 35]: 6.46 µM | growth at 100 µM [20]: 0% | GI50 [21]: 1.66 µM | LC50 [21]: 5.5 µM | TGI [21]: 3.02 µM | GI50 [22]: 3.31 µM | LC50 (concentration killing 50% of cells) [22]: 34.7 µM | TGI [22]: 10 µM | GI50 [23]: 2.4 µM | LC50 [23]: 17.4 µM | TGI [23]: 5.5 µM | GI50 [24]: 1.74 µM | LC50 (concentration killing 50% of cells) [24]: 6.61 µM | TGI [24]: 3.39 µM | GI50 [25]: 3.98 µM | TGI [25]: 17.4 µM | CC50 [25, 35]: 89.1 µM | GI50 [26]: 7.94 µM | TGI [26]: 23.4 µM | CC50 [26, 35]: 61.7 µM | LC50 [27]: 21.4 µM | TGI [27]: 4.9 µM | GI50 [28]: 1.91 µM | LC50 [28]: 9.12 µM | TGI [28]: 4.17 µM | GI50 [29]: 17 µM | TGI [29]: 33.9 µM | CC50 [29, 35]: 67.6 µM | GI50 [30]: 21.9 µM | LC50 [30]: 72.4 µM | TGI [30]: 39.8 µM | GI50 [31]: 2.24 µM | TGI [31]: 6.76 µM | CC50 [31, 35]: 38.9 µM | GI50 [32]: 1.55 µM | LC50 [32]: > 100 µM | TGI [32]: 4.57 µM | GI50 [33]: 1.41 µM | TGI [33]: 3.09 µM | CC50 [33, 35]: 6.61 µM | growth at 100 µM [34]: 0%

Reference: ChEMBL document CHEMBL1143809, “New bis-N9-(methylphenylmethyl)purine derivatives: synthesis and antitumor activity” (2007)
